Results taken from patent publication US10526327B2, “Histone demethylase inhibitors” (CELGENE QUANTICEL RESEARCH, INC., priority 2013, dated 2020).

What was measured:
[1] = target: T1, JMJD2C (Homo sapiens, UniProt Q9H3R0); assay: JMJD2C in vitro enzyme inhibition assay (TR-FRET); type: biochemical
T1 construct: purchased BPS Bioscience 50105
T1 sequence (Q9H3R0 2-372): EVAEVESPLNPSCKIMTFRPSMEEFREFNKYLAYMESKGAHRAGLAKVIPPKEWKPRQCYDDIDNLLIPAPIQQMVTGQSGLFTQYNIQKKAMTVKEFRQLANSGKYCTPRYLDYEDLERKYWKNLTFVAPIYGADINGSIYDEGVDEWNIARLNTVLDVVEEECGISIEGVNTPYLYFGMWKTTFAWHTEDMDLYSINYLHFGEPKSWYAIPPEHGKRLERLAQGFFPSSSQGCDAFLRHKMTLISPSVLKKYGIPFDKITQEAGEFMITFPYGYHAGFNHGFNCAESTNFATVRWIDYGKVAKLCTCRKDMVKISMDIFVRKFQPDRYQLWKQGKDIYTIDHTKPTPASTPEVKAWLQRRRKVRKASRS
From the text: (§1) This assay determines the ability of a test compound to inhibit Jarid1A, Jarid1B, and JMJD2C demethylase activity. Baculovirus expressed Jarid1A (GenBank Accession #NM_001042603, AA1-1090) was purchased from BPS Bioscience (Cat#50110). Baculovirus expressed Jarid1B (GenBank Accession #NM_006618, AA 2-751) was purchased from BPS Bioscience (Cat #50121) or custom made by MolecularThroughput. Baculovirus expressed JMJD2C (GenBank Accession #BC143571, AA 2-372) was purchased from BPS Bioscience (Cat#50105).
The ability of test compounds to inhibit the activity of JMJD2C was determined in 384-well plate format under the following reaction conditions: 0.3 nM JMJD2C, 300 nM H3K9me3-biotin labeled peptide (Anaspec cat #64360), 2 μM alpha-ketoglutaric acid in assay buffer of 50 mM HEPES, pH7.3, 0.005% Brij35, 0.5 mM TCEP, 0.2 mg/ml BSA, 50 μM sodium L-ascorbate, and 2 μM ammonium iron(II) sulfate. Reaction product was determined quantitatively by TR-FRET after the addition of detection reagent Phycolink Streptavidin-allophycocyanin (Prozyme) and Europium-anti-di-methylated histone H3 lysine 9 (H3K9me2) antibody (PerkinElmer) in the presence of 5 mM EDTA in LANCE detection buffer (PerkinElmer) at a final concentration of 50 nM and 1 nM, respectively.
(§2) The assay reaction was initiated by the following: 2 μl of the mixture of 900 nM H3K9me3-biotin labeled peptide and 6 μM alpha-ketoglutaric acid with 2 μl of 11-point serial diluted inhibitor in 3% DMSO were added to each well of the plate, followed by the addition of 2 μl of 0.9 nM JMJD2C to initiate the reaction. The reaction mixture was incubated at room temperature for 30 minutes, and terminated by the addition of 6 μl of 5 mM EDTA in LANCE detection buffer containing 100 nM Phycolink Streptavidin-allophycocyanin and 2 nM Europium-anti-H3K9me2 antibody. Plates were read by EnVisionMultilabel Reader in TR-FRET mode (excitation at 320 nm, emission at 615 nm and 665 nm) after 1 hour incubation at room temperature. A ratio was calculated (665/615) for each well and fitted to determine inhibition constant (IC50).

[2] = target: T2, Jarid1B (Homo sapiens, UniProt Q9UGL1); assay: Jarid1B in vitro enzyme inhibition assay (TR-FRET); type: biochemical
T2 construct: purchased BPS Bioscience or custom made by MolecularThroughput 50121
T2 sequence (Q9UGL1 2-751): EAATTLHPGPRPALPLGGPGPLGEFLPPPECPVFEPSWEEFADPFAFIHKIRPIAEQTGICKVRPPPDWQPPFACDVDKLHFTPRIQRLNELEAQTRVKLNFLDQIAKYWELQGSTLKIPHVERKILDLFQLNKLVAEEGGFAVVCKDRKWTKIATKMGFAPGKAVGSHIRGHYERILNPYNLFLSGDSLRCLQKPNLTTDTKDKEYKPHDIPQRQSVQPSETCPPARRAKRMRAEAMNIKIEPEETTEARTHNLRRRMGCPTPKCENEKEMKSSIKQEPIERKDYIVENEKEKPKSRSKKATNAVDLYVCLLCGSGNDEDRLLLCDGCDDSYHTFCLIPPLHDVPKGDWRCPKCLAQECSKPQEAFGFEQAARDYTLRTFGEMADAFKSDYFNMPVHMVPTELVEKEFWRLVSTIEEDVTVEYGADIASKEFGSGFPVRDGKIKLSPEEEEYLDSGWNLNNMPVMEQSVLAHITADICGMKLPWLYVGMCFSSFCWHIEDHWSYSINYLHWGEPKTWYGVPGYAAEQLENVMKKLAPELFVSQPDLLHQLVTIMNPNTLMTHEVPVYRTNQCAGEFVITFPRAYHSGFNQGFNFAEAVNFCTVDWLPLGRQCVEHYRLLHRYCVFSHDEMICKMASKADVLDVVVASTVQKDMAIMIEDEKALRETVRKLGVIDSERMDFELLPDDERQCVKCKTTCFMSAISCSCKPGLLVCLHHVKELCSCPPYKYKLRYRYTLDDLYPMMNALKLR
From the text: as §1
The ability of test compounds to inhibit the activity of Jarid1B was determined in 384-well plate format under the following reaction conditions: 0.8 nM Jarid1B, 300 nM H3K4me3-biotin labeled peptide (Anaspec cat #64357), 2 μM alpha-ketoglutaric acid in assay buffer of 50 mM HEPES, pH7.3, 0.005% Brij35, 0.5 mM TCEP, 0.2 mg/ml BSA, 50 μM sodium L-ascorbate, and 2 μM ammonium iron(II) sulfate. Reaction product was determined quantitatively by TR-FRET after the addition of detection reagent Phycolink Streptavidin-allophycocyanin (Prozyme) and Europium-anti-mono-or di-methylated histone H3 lysine 4 (H3K4me1-2) antibody (PerkinElmer) in the presence of 5 mM EDTA in LANCE detection buffer (PerkinElmer) at a final concentration of 25 nM and 1 nM, respectively.
as §2, with “nM H3K4me3-biotin” for “nM H3K9me3-biotin”, “DMSO was” for “DMSO were”, “of 2.4” for “of 0.9”, “nM Jarid1B” for “nM JMJD2C”, “containing 50” for “containing 100”, “nM Europium-anti-H3K4me1-2” for “nM Europium-anti-H3K9me2”

SMILES | IC50 [1] [nM] | IC50 [2] [nM]
CN(C)CCOc1nc(O)c2ccnc(-c3cn(C)cn3)c2n1 [Example 76, 2-[2-(dimethylamino)ethoxy]-8-(1-methylimidazol-4-yl)pyrido[3,4-d]pyrimidin-4-ol] | 100 to 1000 | 100 to 1000
Cn1cnc(-c2nccc3c(O)nc(OCC(F)F)nc23)c1 [Example 77, 2-(2,2-difluoroethoxy)-8-(1-methylimidazol-4-yl)pyrido[3,4-d]pyrimidin-4-ol] | 100 to 1000 | ≤ 100
Cn1cnc(-c2nccc3c(O)nc(Oc4cnn(Cc5ccccc5)c4)nc23)c1 [Example 79, 2-(1-benzylpyrazol-4-yl)oxy-8-(1-methylimidazol-4-yl)pyrido[3,4-d]pyrimidin-4-ol] | 100 to 1000 | ≤ 100
COCCOc1ccc(Oc2nc(O)c3ccnc(-c4cn(C)cn4)c3n2)cc1 [Example 82, 2-[4-(2-methoxyethoxy)phenoxy]-8-(1-methylimidazol-4-yl)pyrido[3,4-d]pyrimidin-4-ol] | 100 to 1000 | ≤ 100
Cn1cnc(-c2nccc3c(O)nc(Oc4ccc5cnn(C)c5c4)nc23)c1 [Example 83, 8-(1-methylimidazol-4-yl)-2-(1-methylindazol-6-yl)oxypyrido[3,4-d]pyrimidin-4-ol] | 100 to 1000 | ≤ 100
CCn1ncc2ccc(Oc3nc(O)c4ccnc(-c5cn(C)cn5)c4n3)cc21 [Example 84, 2-(1-ethylindazol-6-yl)oxy-8-(1-methylimidazol-4-yl)pyrido[3,4-d]pyrimidin-4-ol] | 100 to 1000 | ≤ 100
Oc1nc(Oc2cnn(Cc3ccccc3F)c2)nc2cnccc12 [Example 87, 2-[1-(2-fluorobenzyl)pyrazol-4-yl]oxypyrido[3,4-d]pyrimidin-4-ol] | ≤ 100 | ≤ 100
CC(C)(C)OC(=O)N1CCC(n2cc(Oc3nc(O)c4ccncc4n3)cn2)CC1 [Example 88, tert-butyl 4-[4-(4-hydroxypyrido[3,4-d]pyrimidin-2-yl)oxypyrazol-1-yl]piperidine-1-carboxylate] | 100 to 1000 | ≤ 100
CC(=O)N1CCC(n2cc(Oc3nc(O)c4ccncc4n3)cn2)CC1 [Example 90, 1-[4-[4-(4-hydroxypyrido[3,4-d]pyrimidin-2-yl)oxypyrazol-1-yl]piperidin-1-yl]ethanone] | ≤ 100 | ≤ 100
C=CC(=O)N1CCC(n2cc(Oc3nc(O)c4ccncc4n3)cn2)CC1 [Example 91, 1-[4-[4-(4-hydroxypyrido[3,4-d]pyrimidin-2-yl)oxypyrazol-1-yl]piperidin-1-yl]prop-2-en-1-one] | 100 to 1000 | ≤ 100
O=C(C1CC1)N1CCC(n2cc(Oc3nc(O)c4ccncc4n3)cn2)CC1 [Example 92, cyclopropyl-[4-[4-(4-hydroxypyrido[3,4-d]pyrimidin-2-yl)oxypyrazol-1-yl]piperidin-1-yl]methanone] | ≤ 100 | ≤ 100

Second part, the compound after the results:

IC50 [1] [nM] | IC50 [2] [nM] | SMILES
100 to 1000 | ≤ 100 | Cn1cnc(-c2nccc3c(O)nc(OCCO)nc23)c1 [Example 75, 2-(2-hydroxyethoxy)-8-(1-methylimidazol-4-yl)pyrido[3,4-d]pyrimidin-4-ol]
100 to 1000 | ≤ 100 | Cn1cnc(-c2nccc3c(O)nc(OCCC4CC4)nc23)c1 [Example 78, 2-(2-cyclopropylethoxy)-8-(1-methylimidazol-4-yl)pyrido[3,4-d]pyrimidin-4-ol]
100 to 1000 | ≤ 100 | CC(C)CCn1cc(Oc2nc(O)c3ccnc(-c4cn(C)cn4)c3n2)cn1 [Example 80, 2-[1-(3-methylbutyl)pyrazol-4-yl]oxy-8-(1-methylimidazol-4-yl)pyrido[3,4-d]pyrimidin-4-ol]
100 to 1000 | ≤ 100 | Cn1cnc(-c2nccc3c(O)nc(Oc4ccc(F)c(F)c4)nc23)c1 [Example 81, 2-(3,4-difluorophenoxy)-8-(1-methylimidazol-4-yl)pyrido[3,4-d]pyrimidin-4-ol]
100 to 1000 | ≤ 100 | Cc1nn(C)c2cc(Oc3nc(O)c4ccnc(-c5cn(C)cn5)c4n3)ccc12 [Example 85, 2-(1,3-dimethylindazol-6-yl)oxy-8-(1-methylimidazol-4-yl)pyrido[3,4-d]pyrimidin-4-ol]
≤ 100 | ≤ 100 | Oc1nc(Oc2cnn(Cc3ccc(F)cc3)c2)nc2cnccc12 [Example 86, 2-[1-(4-fluorobenzyl)pyrazol-4-yl]oxypyrido[3,4-d]pyrimidin-4-ol]
≤ 100 | ≤ 100 | Oc1nc(Oc2cnn(C3CCNCC3)c2)nc2cnccc12 [Example 89, 2-(1-piperidin-4-ylpyrazol-4-yl)oxypyrido[3,4-d]pyrimidin-4-ol]
≤ 100 | ≤ 100 | O=C(c1ccc(F)cc1)N1CCC(n2cc(Oc3nc(O)c4ccncc4n3)cn2)CC1 [Example 93, (4-fluorophenyl)-[4-[4-(4-hydroxypyrido[3,4-d]pyrimidin-2-yl)oxypyrazol-1-yl]piperidin-1-yl]methanone]
≤ 100 | ≤ 100 | O=S(=O)(C1CC1)N1CCC(n2cc(Oc3nc(O)c4ccncc4n3)cn2)CC1 [Example 94, 2-[1-(1-cyclopropylsulfonylpiperidin-4-yl)pyrazol-4-yl]oxypyrido[3,4-d]pyrimidin-4-ol]
≤ 100 | ≤ 100 | O=S(=O)(c1ccccc1)N1CCC(n2cc(Oc3nc(O)c4ccncc4n3)cn2)CC1 [Example 95, 2-[1-[1-(benzenesulfonyl)piperidin-4-yl]pyrazol-4-yl]oxypyrido[3,4-d]pyrimidin-4-ol]
100 to 1000 | ≤ 100 | Oc1nc(Oc2ccnc(N3CCNCC3)c2)nc2cnccc12 [Example 96, 2-(2-piperazin-1-ylpyridin-4-yl)oxypyrido[3,4-d]pyrimidin-4-ol]
